The source of these data is patent US20050209278A1, “Piperidinyl- and piperazinyl-sulfonylmethyl hydroxamic acids and their use as protease inhibitors” (priority 2002, published 2005).

Each structure is given as a SMILES string. pKi: −log10 of the molar value. Structures can show the parent of a compound that is named as a salt. Where two headings read alike, the source gives them in different places.

One experiment concerns the target T1, MMP-1 (Homo sapiens, UniProt P03956).
T1 construct: made in house; host or cells: MMP-1-transfected HT-1080 cells (spent media)
T1 sequence (P03956 100-469): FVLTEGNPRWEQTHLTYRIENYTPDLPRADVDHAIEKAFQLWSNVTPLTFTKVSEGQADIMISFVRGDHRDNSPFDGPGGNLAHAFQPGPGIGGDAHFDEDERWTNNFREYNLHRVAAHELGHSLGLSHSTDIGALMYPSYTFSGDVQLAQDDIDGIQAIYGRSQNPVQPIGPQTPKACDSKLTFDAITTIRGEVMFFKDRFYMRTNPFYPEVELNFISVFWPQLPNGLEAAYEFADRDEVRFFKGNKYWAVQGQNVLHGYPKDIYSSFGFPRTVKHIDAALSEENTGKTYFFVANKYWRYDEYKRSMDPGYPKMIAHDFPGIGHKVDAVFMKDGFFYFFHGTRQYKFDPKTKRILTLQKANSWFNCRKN
Put plainly: In vitro MMP inhibition, Ki determination (fluorogenic substrate II). The format is biochemical. The method, then: (§1) Several hydroxamic acids and salts thereof were analyzed in in vitro assays to determine their ability to inhibit the MMP cleavage of peptide substrates. […] and IC50 constants were calculated from the assayed hydroxamic acid-MMP interactions.
(§2) Human recombinant MMP-1, MMP-2, MMP-9, MMP-13, and MMP-14 were used in this assay. All enzymes were prepared in Assignee's laboratories following usual laboratory procedures. Protocols for the preparation and use of these enzymes are available in the scientific literature. See, e.g., Enzyme Nomenclature (Academic Press, San Diego, Calif., 1992) (and the citations therein). See also, Freije et al., “Molecular cloning and expression of collagenase-3, a novel human matrix metalloproteinase produced by breast carcinomas,” J Biol. Chem., 269(24), 16766-16773 (1994).
The MMP-1 proenzyme was purified from the spent media of MMP-1-transfected HT-1080 cells provided by Dr. Harold Welgus of Washington University (St. Louis, Mo.). The protein was purified on a zinc chelating column.
(§3) All MMPs were activated using 4-aminophenylmercuric acetate (“APMA”, Sigma Chemical, St. Louis, Mo.) or trypsin. MMP-9 also was activated using human recombinant MMP-3 (purified in Assignee's laboratory following standard cloning and purification techniques).
(§4) Two fluorogenic, methoxycoumarin-containing polypeptide substrates were used in the MMP inhibition assays: [drawing 427] Here, “Dpa” is 3-(2,4-dinitrophenyl)-L-2,3-diaminopropionyl group, and “MCA” is 7-methoxycoumarin-4-yl acetyl. Substrate (I) was purchased from Baychem (Redwood City, Calif.), and substrate II was prepared Assignee's laboratory. Substrate I was used in the IC50 determination assays, while substrate II was used in the Ki determination assays. In the absence of MMP inhibitory activity, either substrate is cleaved at the Gly-Leu peptide bond. This cleavage separates the highly fluorogenic peptide from the 2,4-dinitrophenyl quencher, thus resulting in increase of fluorescent intensity.
(§5) The stock solutions of the assayed hydroxamic acids (or salts thereof) were prepared in 1% dimethyl sulfoxide (DMSO). These stock solutions were diluted in Buffer A (100 mM Tris-HCl, 100 mM NaCl, 10 mM CaCl2, 0.05% polyoxyethylene 23 lauryl ether, pH 7.5) to obtain solutions with different hydroxamic acid concentrations, i.e., assay solutions with different concentrations of the assayed MMP inhibitory compound. The experiment controls contained the same amount of Buffer A/DMSO as the assayed sample, but contained no hydroxamic acid (or salt thereof).
The assays from which the Ki determinations were made were performed as follows. The assayed hydroxamic acid samples were incubated in separate wells of untreated white polystyrene plates (Nunc Nalgene International, Rochester, N.Y.), and analyzed on a Tecan SpectraFlour Plus plate reader. The excitation wavelength was 330 nm, and the emission wavelength—420 nm. All samples (assayed hydroxamic acids and controls) were incubated in separate plate wells at room temperature for 1 hr in the presence of 4 μM of MMP substrate (II). In the absence of MMP inhibitory activity, substrate II was cleaved at the Gly-Leu bond resulting in an increase of relative fluorescence. Inhibition was observed as a reduced rate of this increase in relative fluorescence. The various hydroxamic acids were analyzed using a single low enzyme concentration with a single substrate concentration fixed at or below the Km. This protocol is a modification of method by Knight et al., FEBS Lett., 296(3), 263-266 (1992). Apparent inhibitory constants were determined by non-linear regression of reaction velocity as a function of inhibitor and enzyme concentration using Morrison's equation, as described by Kuzmic, Anal. Biochem. 286, 45-50 (2000). […] Since the substrate concentration was chosen to be at or below the Km, the apparent Ki's from this analysis were reported as Ki's without correction for the influence of substrate.

For a further experiment, the target named is T2, MMP-9 (Homo sapiens, UniProt P14780).
T2 construct: made in house; host or cells: MMP-9-transfected HT1080 cells (spent media)
Described as above. The experiment is classed as biochemical. On the procedure: as §1, §2
The MMP-9 proenzyme was purified by gelatin Sepharose chromatography from spent media of MMP-9-transfected HT1080 cells provided by Dr. Howard Welgus of Washington University (St. Louis, Mo.).
as §3, §4, §5
The assays from which the Ki determinations were made were performed as follows. The assayed hydroxamic acid samples were incubated in separate wells of untreated white polystyrene plates (Nunc Nalgene International, Rochester, N.Y.), and analyzed on a Tecan SpectraFlour Plus plate reader. The excitation wavelength was 330 nm, and the emission wavelength—420 nm. All samples (assayed hydroxamic acids and controls) were incubated in separate plate wells at room temperature for 1 hr in the presence of 4 μM of MMP substrate (II). In the absence of MMP inhibitory activity, substrate II was cleaved at the Gly-Leu bond resulting in an increase of relative fluorescence. Inhibition was observed as a reduced rate of this increase in relative fluorescence. The various hydroxamic acids were analyzed using a single low enzyme concentration with a single substrate concentration fixed at or below the Km. This protocol is a modification of method by Knight et al., FEBS Lett., 296(3), 263-266 (1992). Apparent inhibitory constants were determined by non-linear regression of reaction velocity as a function of inhibitor and enzyme concentration using Morrison's equation, as described by Kuzmic, Anal. Biochem. 286, 45-50 (2000). Modifications were made in the non-linear regression method to allow a common control reaction rate and effective enzyme concentration to be shared between all dose-response relationships on a given assay plate. […]

Setting [1] is: human recombinant enzyme, 4 μM substrate II, room temperature, 1 hr, read-out: MMP-1 Ki.
Where [2] appears, read: human recombinant enzyme, 4 μM substrate II, room temperature, 1 hr.
Where [3] appears, read: value not in parenthesis, read-out: MMP-1 Ki.
Where [4] appears, read: MMP-1 Ki, value not in parenthesis.

T2 sequence (P14780 107-707 limits assumed): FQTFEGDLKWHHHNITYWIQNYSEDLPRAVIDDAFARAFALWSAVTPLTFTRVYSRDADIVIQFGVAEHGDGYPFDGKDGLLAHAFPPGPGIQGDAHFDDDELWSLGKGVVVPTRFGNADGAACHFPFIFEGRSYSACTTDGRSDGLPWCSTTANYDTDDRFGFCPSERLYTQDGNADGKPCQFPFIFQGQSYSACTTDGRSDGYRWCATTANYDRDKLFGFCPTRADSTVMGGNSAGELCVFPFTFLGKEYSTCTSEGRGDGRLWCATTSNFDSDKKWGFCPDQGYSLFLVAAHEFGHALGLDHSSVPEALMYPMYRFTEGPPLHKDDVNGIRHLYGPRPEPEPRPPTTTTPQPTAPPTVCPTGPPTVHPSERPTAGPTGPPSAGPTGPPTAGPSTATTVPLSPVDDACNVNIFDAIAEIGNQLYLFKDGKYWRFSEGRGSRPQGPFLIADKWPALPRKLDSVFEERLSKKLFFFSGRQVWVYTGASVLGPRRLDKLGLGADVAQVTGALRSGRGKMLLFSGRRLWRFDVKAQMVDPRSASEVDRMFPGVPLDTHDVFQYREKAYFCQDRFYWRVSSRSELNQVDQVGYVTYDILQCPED

`O=C(NO)C1(S(=O)(=O)N2CCN(c3ccc(CCC(F)(F)C(F)(F)F)cc3)CC2)CCOCC1` [Example 17, N-hydroxy-4-({4-[4-(3,3,4,4,4-pentafluorobutyl)phenyl]piperazin-1-yl}sulfonyl)tetrahydro-2H-pyran-4-carboxamide Hydrochloride]: the negative logarithm of the Ki (pKi) at MMP-1 (setting [1]) was less than 5.00; at MMP-9 (setting [2]) it was 9.00.
With `O=C(NO)C1(S(=O)(=O)N2CCC(c3ccc(CCC(F)(F)C(F)(F)F)cc3)CC2)CCOCC1` [Example 18, N-hydroxy-4-({4-[4-(3,3,4,4,4-pentafluorobutyl)phenyl]piperidin-1-yl}sulfonyl)tetrahydro-2H-pyran-4-carboxamide], the results for the pKi at MMP-1 (setting [1]) and on MMP-9 (setting [2]) were 5.13 and 9.40, respectively.
`CCCCc1ccc(C2CCN(S(=O)(=O)C3(C(=O)NO)CCOCC3)CC2)s1` [Example 19, 4-{[4-(5-butylthien-2-yl)piperidin-1-yl]sulfonyl}-N-hydroxytetrahydro-2H-pyran-4-carboxamide]: the negative-log Ki (pKi) was less than 5.00 on MMP-1 (setting [1]) and 9.30 on MMP-9 (setting [2]).
As for `COCCN1CCC(C(=O)NO)(S(=O)(=O)N2CCC(c3ccc(OCCCC(F)(F)F)cc3)CC2)CC1` [Example 20, N-hydroxy-1-(2-methoxyethyl)-4-({4-[4-(4,4,4-trifluorobutoxy)phenyl]piperidin-1-yl}sulfonyl)piperidine-4-carboxamide Hydrochloride], the pKi was less than 5.00 on MMP-1 (setting [1]) and 8.41 on MMP-9 (setting [2]).
`CCCCCc1ccc(N2CCN(S(=O)(=O)C3(C(=O)NO)CCN(C(=O)C(F)(F)F)CC3)CC2)cc1` [Example 21, N-hydroxy-4-{[4-(4-pentylphenyl)piperazin-1-yl]sulfonyl}-1-(trifluoroacetyl)piperidine-4-carboxamide Hydrochloride]: the pKi on MMP-1 (setting [1]) is less than 5.00; on MMP-9 (setting [2]), 8.09.
On the same counts, the results for `CCCCCc1ccc(N2CCN(S(=O)(=O)C3(C(=O)NO)CCN(CC)CC3)CC2)cc1F` [Example 22, 1-ethyl-4-{[4-(3-fluoro-4-pentylphenyl)piperazin-1-yl]sulfonyl}-N-hydroxypiperidine-4-carboxamine Hydrochloride] are less than 5.00 and 8.49.
`CCCCCc1ccc(N2CCN(S(=O)(=O)C3(C(=O)NO)CCOCC3)CC2)c(F)c1` [Example 23, 4-{[4-(2-fluoro-4-pentylphenyl)piperazin-1-yl]sulfonyl}-N-hydroxytetrahydro-2H-pyran-4-carboxamide Hydrochloride]: the figures for the pKi on MMP-1 (setting [1]) and on MMP-9 (setting [2]) were less than 5.00 and 8.57, respectively.
For `CCCCc1ccc(C2CCN(S(=O)(=O)C3(C(=O)NO)CCN(C4CC4)CC3)CC2)nc1` [Example 24, 4-{[4-(5-butylpyridin-2-yl)piperidin-1-yl]sulfonyl}-1-cyclopropyl-N-hydroxypiperidine-4-carboxamide Hydrochloride], the pKi at MMP-1 (setting [1]) is less than 5.00; at MMP-9 (setting [2]) it was 9.92.
On to `O=C(NO)C1(S(=O)(=O)N2CCC(c3ccc(OCC(F)(F)F)cc3)CC2)CCN(C2CC2)CC1` [Example 25, 1-cyclopropyl-N-hydroxy-4-({4-[4-(2,2,2-trifluoroethoxy)phenyl]piperidin-1-yl}sulfonyl)piperidine-4-carboxamide Hydrochloride], for which the negative logarithm of the Ki (pKi) on MMP-1 (setting [1]) is less than 5.00; on MMP-9 (setting [2]), 8.22.
On the same counts, the results for `CCCCCCCCC1CCN(S(=O)(=O)C2(C(=O)NO)CCOCC2)CC1` [Example 26, 4-(4-octyl-piperidine-1-sulfonyl)-tetrahydro-pyran-4-carboxylic Acid Hydroxyamide] are 5.53 and 9.48.
Consider `O=C(NO)C1(S(=O)(=O)N2CCC(c3cnc(OCC(F)(F)C(F)(F)F)cn3)CC2)CCOCC1` [Example 27], for which the negative-log Ki (pKi) at MMP-1 (setting [1]) was 5.32; at MMP-9 (setting [2]), 9.27.
For `CCCCCc1cnc(N2CCN(S(=O)(=O)C3(C(=O)NO)CCOCC3)CC2)s1` [Example 56], the pKi is less than 5.00 at MMP-1 (setting [3]) and 8.46 on MMP-9 (value not in parenthesis).
The matching figures for `O=C(NO)C1(S(=O)(=O)N2CCN(c3ccc(-c4ccc(Cl)cc4)cn3)CC2)CCOCC1` [Example 60]: 6.26 and 8.15.
As to `O=C(NO)C1(S(=O)(=O)N2CCN(c3ccc(COCC(F)(F)C(F)(F)C(F)(F)C(F)F)cc3)CC2)CCOCC1` [Example 68], the figures for the negative logarithm of the Ki (pKi) at MMP-1 (setting [4]) and on MMP-9 (value not in parenthesis) were less than 5.00 and 6.68, respectively.
`O=C(NO)C1(S(=O)(=O)N2CCN(c3ccc(COCC(F)(F)C(F)(F)C(F)(F)F)cc3)CC2)CCOCC1` [Example 69]: the negative-log Ki (pKi) is less than 5.00 at MMP-1 (setting [4]) and 6.69 on MMP-9 (value not in parenthesis).
As to `C=CCCOC(=O)N1CCC(C(=O)NO)(S(=O)(=O)N2CCN(c3ccc(OCCCC)cc3)CC2)CC1` [Example 101], the negative logarithm of the Ki (pKi) is less than 5.00 on MMP-1 (setting [3]) and 8.42 on MMP-9 (value not in parenthesis).
In the case of `COCCN1CCC(C(=O)NO)(S(=O)(=O)N2CCN(c3ccc(OCCCC(F)(F)F)cc3F)CC2)CC1` [Example 102], the negative-log Ki (pKi) on MMP-1 (setting [3]) was less than 5.00; at MMP-9 (value not in parenthesis), 7.74.
For `O=C(NO)C1(S(=O)(=O)N2CCN(c3ncc(Br)cn3)CC2)CCOCC1` [Example 103], the pKi is 6.16 on MMP-1 (setting [3]) and 7.98 on MMP-9 (value not in parenthesis).
`O=C(NO)C1(S(=O)(=O)N2CCN(c3ncc(Br)cn3)CC2)CCOCC1` [Example 104]: the negative-log Ki (pKi) is 6.08 at MMP-1 (setting [3]) and 7.92 at MMP-9 (value not in parenthesis).
The matching figures for `O=C(NO)C1(S(=O)(=O)N2CCN(c3ncccn3)CC2)CCOCC1` [Example 106]: 5.83 and 6.63.
The matching figures for `O=C(NO)C1(S(=O)(=O)N2CCN(c3ncccn3)CC2)CCOCC1` [Example 107]: 5.92 and 6.82.
For the molecule `COc1ccc(N2CCN(S(=O)(=O)C3(C(=O)NO)CCOCC3)CC2)nc1` [Example 108], the negative-log Ki (pKi) at MMP-1 (setting [3]) is less than 5.00; on MMP-9 (value not in parenthesis), 6.40.
